pIC50: −log10 of the molar value.
Key:
[1] = tested on: gastric tumor (N87) cell lines; assay: Methylene Blue Growth Inhibition Assay, N87; assay type: cell-based; conditions: Homo sapiens, 72 h; 3 days incubation, methylene blue staining
Method: (§1) Human breast (BT474), head and neck (HN5) and gastric tumor (N87) cell lines and human foreskin Fibroblasts (HFF) were cultured in low glucose DMEM (Life Technologies 12320-032) containing 10% fetal bovine serum (FBS) at 37°C in a humidified 10% CO2, 90% air incubator. The SV40 transformed human mammary epithelial cell line HB4a was transfected with either human H-ras cDNA (HB4a r4.2) or the human c-erbB2 cDNA (HB4a c5.2). The HB4a clones were cultured in RPMI containing 10% FBS, insulin (5 µg/ml), hydrocortisone (5 µg/ml), supplemented with the selection agent hygromycin B (50µg/ml). Cells were harvested using trypsin/EDTA, counted using a haemocytometer, and plated in […] of the appropriate media, at the following densities, in a 96-well tissue culture plate (Falcon 3075): BT474 10,000 cells/well, HN5 3,000 cells/well, N87 10,000 cells/well, HB4a c5.2 3,000 cells/well, HB4a r4.2 3,000 cells/well, HFF 2500 cells/well. The next day, compounds were diluted in DMEM containing […] gentamicin, at twice the final required concentration, from 10mM stock solutions in DMSO. […]/well of these dilutions were added to the 100ml of media currently on the cell plates. Medium containing 0.6% DMSO was added to control wells. Compounds diluted in DMEM were added to all cell lines, including the HB4a r4.2 and HB4a c5.2 cell lines. The final concentration of DMSO in all wells was 0.3%. Cells were incubated at 37°C, 10% CO2 for 3 days. Medium was removed by aspiration. Cell biomass was estimated by staining cells with 100µl per well methylene blue (Sigma M9140, 0.5% in 50:50 ethanol:water), and incubation at room temperature for at least 30 minutes. Stain was removed, and the plates rinsed under a gentle stream of water, and air-dried. To release stain from the cells 100µl of solubilization solution was added (1% N-lauroyl sarcosine, Sodium salt, Sigma L5125, in PBS), and plates were shaken gently for about 30 minutes. Optical density at 620 nm was measured on a microplate reader. Percent inhibition of cell growth was calculated relative to vehicle treated control wells. […]

breast (BT474) = assay: Methylene Blue Growth Inhibition Assay, BT474; assay type: cell-based; conditions: Homo sapiens, BT-474, 72 h; 3 days incubation, methylene blue staining; read-out: BT474 IC50 uM Cell
Method: as §1

head and neck (HN5) = assay: Methylene Blue Growth Inhibition Assay, HN5; assay type: cell-based; conditions: Homo sapiens, 72 h; 3 days incubation, methylene blue staining; read-out: HN5 IC50 uM Cell
Method: as §1

[2] = Slurry equilibration method, relative physical stability of anhydrate and monohydrate crystal forms; conditions: for Equilibrium Form: 25°C, pXRD
[3] = molecular target: EGFr isolated from solubilised A431 cell membranes (Homo sapiens, UniProt P00533); assay: Substrate phosphorylation assay, EGFR tyrosine kinase inhibition; assay type: biochemical; conditions: tested in buffered solution
EGFr isolated from solubilised A431 cell membranes, sequence (P00533 25-1210): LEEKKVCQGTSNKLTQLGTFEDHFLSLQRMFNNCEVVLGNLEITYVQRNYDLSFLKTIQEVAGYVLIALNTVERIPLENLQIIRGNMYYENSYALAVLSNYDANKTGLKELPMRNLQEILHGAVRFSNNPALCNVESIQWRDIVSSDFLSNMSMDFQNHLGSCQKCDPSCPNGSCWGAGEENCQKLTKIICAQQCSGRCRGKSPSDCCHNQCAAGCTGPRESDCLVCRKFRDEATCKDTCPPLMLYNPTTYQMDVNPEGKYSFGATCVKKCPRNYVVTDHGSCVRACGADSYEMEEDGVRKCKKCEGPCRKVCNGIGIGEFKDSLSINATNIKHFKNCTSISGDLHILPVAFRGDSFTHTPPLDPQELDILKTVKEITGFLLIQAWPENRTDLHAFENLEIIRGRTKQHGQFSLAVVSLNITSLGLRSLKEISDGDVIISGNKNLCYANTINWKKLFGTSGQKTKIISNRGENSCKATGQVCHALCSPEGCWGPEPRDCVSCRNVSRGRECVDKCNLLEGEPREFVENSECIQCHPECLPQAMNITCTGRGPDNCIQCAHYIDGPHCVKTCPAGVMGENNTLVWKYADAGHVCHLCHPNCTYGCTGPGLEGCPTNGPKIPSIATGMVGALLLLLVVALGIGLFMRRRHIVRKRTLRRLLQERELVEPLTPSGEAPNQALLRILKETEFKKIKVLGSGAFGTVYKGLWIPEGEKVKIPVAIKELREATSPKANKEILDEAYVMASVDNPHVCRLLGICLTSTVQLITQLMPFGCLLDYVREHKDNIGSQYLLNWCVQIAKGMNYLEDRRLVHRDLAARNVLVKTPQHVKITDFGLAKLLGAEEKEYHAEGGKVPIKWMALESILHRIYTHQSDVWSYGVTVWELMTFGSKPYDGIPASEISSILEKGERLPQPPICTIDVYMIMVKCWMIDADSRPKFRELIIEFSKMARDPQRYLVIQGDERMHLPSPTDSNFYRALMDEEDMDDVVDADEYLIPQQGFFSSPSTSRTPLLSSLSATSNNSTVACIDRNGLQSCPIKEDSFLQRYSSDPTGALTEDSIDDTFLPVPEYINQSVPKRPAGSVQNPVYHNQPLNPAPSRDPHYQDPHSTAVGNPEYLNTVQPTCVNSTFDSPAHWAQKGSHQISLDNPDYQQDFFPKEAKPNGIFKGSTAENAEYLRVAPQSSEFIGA
Excerpt: (§2) The substrate phosphorylation assays use baculovirus expressed, recombinant constructs of the intracellular domains of c-erbB-2 and c-erbB-4 that are constitutively active and EGFr isolated from solubilised A431 cell membranes. The method measures the ability of the isolated enzymes to catalyse the transfer of the g-phosphate from ATP onto tyrosine residues in a biotinylated synthetic peptide (Biotin-[…]. Substrate phosphorylation was detected following either of the following two procedures: • a.) c-ErbB-2, c-ErbB4 or EGFr were incubated for 30 minutes, at room temperature, with 10mM MnCl2, […], and test compound (diluted from a 5mM stock in DMSO, final DMSO concentration is 2%) in 40mM HEPES buffer, pH 7.4. The reaction was stopped by the addition of EDTA (final concentration 0.15mM) and a sample was transferred to a streptavidin-coated 96-well plate. The plate was washed and the level of phosphotyrosine on the peptide was determined using a Europium-labelled antiphosphotyrosine antibody and quantified with a time-resolved fluorescence technique. • b.) ErbB2 was incubated for 50 minutes at room temperature with 15 mM MnCl2, 2 mM ATP, 0.25 mCi [g-^33P] […] The SPA signal was measured using a Packard Topcount 96-well plate scintillation counter (Packard Instrument Co., Meriden, CT).

c-erbB-2 = molecular target: T1, c-erbB-2 (Homo sapiens, UniProt P04626); assay: Substrate phosphorylation assay, erbB2 tyrosine kinase inhibition; assay type: biochemical; conditions: tested in buffered solution
T1 construct: recombinant constructs of the intracellular domains of c-erbB-2 and c-erbB-4 that are constitutively active; made in house
T1 sequence (P04626 676-1255 limits assumed): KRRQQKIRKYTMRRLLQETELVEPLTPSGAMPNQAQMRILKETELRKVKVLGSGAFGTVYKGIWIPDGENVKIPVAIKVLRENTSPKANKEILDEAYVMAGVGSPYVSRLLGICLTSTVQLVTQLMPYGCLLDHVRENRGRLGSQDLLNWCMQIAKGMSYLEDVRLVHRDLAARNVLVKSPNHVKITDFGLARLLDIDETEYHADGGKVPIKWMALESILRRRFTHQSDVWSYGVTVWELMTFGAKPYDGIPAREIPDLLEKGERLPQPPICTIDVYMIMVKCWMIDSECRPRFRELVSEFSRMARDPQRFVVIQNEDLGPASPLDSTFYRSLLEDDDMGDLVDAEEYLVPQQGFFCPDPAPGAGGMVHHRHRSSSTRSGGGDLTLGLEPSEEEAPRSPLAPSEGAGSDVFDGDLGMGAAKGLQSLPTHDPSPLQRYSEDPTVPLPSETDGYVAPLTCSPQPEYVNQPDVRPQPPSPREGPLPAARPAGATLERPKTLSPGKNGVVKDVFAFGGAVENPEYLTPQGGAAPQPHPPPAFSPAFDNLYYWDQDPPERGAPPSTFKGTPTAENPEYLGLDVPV
Excerpt: as §2

c-erbB-4 = molecular target: T2, c-erbB-4 (Homo sapiens, UniProt Q15303); assay: Substrate phosphorylation assay, erbB4 tyrosine kinase inhibition; assay type: biochemical; conditions: tested in buffered solution
T2 construct: recombinant constructs of the intracellular domains of c-erbB-2 and c-erbB-4 that are constitutively active; made in house
T2 sequence (Q15303 676-1308 limits assumed): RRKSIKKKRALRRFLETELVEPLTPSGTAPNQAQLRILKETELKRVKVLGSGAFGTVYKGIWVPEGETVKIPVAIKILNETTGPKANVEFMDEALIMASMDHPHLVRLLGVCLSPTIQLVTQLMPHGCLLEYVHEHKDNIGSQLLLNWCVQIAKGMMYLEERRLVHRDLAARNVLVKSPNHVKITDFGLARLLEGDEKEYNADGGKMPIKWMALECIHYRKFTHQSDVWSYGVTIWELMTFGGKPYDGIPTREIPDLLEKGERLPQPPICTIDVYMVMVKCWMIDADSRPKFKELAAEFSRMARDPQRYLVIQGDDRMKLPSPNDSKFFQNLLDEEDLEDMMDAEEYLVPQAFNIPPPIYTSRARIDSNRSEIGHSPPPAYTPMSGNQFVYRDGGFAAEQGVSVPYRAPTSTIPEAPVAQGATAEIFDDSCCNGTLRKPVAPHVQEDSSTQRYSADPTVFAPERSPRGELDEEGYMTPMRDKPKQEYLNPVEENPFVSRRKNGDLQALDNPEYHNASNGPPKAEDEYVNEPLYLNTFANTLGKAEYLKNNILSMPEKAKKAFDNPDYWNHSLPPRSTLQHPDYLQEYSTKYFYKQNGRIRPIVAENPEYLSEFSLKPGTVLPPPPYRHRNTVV
Excerpt: as §2

[4] = Moisture sorption testing; assay type: physicochemical; conditions: at the humidities to which it might be exposed (e.g., 20-75% relative humidity (RH))
Method: Approximately 12 mg of N-{3-Chloro-4-[(3-fluorobenzyl) oxy]phenyl}-6-[5-({[2-(methanesulphonyl)ethyl] amino}methyl)-2-furyl]-4-quinazolinamine ditosylate monohydrate salt prepared according to Example 10 was weighed into a sample pan of a moisture sorption apparatus (model number SGA-100, made by VTI). The sample was dried at 60°C under a nitrogen stream until the weight loss was less than 0.015% in 5 minutes. The relative humidity (RH) was then increased (adsorption) to 5, 15, 25, 35, 45, 55, 65, 75, 85 and 95% - at each step, equilibrium was defined as a weight change of less than 0.015% in 5 minutes. The relative humidity was then decreased (desorption) to 90, 80, 70, 60, 50, 40, 30, and 20% with the same equilibrium condition. The sorption curve (y-axis: Weight - % change vs. x-axis: % RH) is depicted in Figure 3(a).
Approximately 15 mg of N-{3-Chloro-4-[(3-fluorobenzyl) oxy]phenyl}-6-[5-({[2-(methanesulphonyl)ethyl]amino}methyl)-2-furyl]-4-quinazolinamine di-HCl salt was weighed into a sample pan of a moisture sorption apparatus (model number SGA-100 , made by VTI). The sample was dried at 60°C under a nitrogen stream until the weight loss was less than 0.015% in 5 minutes. The relative humidity was then increased (adsorption) to 5, 15, 25, 35, 45, 55, 65, 75, 85 and 95% - at each step, equilibrium was defined as a weight change of less than 0.015% in 5 minutes. […]

IC50 [1] [µM]	IC50 (breast (BT474)) [µM]	pIC50 [3]	pIC50 (c-erbB-2)	pIC50 (c-erbB-4)	Structure (SMILES)	IC50 (head and neck (HN5)) [µM]	further results
–	–	–	–	–	CS(=O)(=O)CCNCc1ccc(-c2ccc3ncnc(Nc4ccc(OCc5cccc(F)c5)c(Cl)c4)c3c2)o1 [Example 10, N-{3-Chloro-4-[(3-f/uorobenzyl)oxy]phenyl}-6-[5-({[2-(methanesulphonyl)ethyl]amino}methyl)-2-furyl]-4-quinazolinamine ditosylate monohydrate]	–	RH at which the monohydrate becomes the thermodynamically stable form ([2]; remains stable up through 100% RH, slurry equilibration at 25°C): 7 - 15 % RH
< 5	< 5	> 7.00	> 7.00	5.00 to 6.00	CS(=O)(=O)CCNCc1ccc(-c2ccc3ncnc(Nc4ccc(OCc5cccc(F)c5)c(Br)c4)c3c2)o1 [Example 12, (4-(3-Fluoro-benzyloxy)-3-bromophenyl)-(6-(5-((2-methanesulphonyl-ethylamino)-methyl)-furan-2 yl)quinazolin-4 yl)-amine ditosylate]	< 5	–
< 5	< 5	> 7.00	> 7.00	6.00 to 7.00	CS(=O)(=O)CCNCc1nc(-c2ccc3ncnc(Nc4ccc(OCc5cccc(F)c5)c(Cl)c4)c3c2)cs1 [Example 13, (4-(3-Fluoro-benzyloxy)-3-chlorophenyl)-(6-(2-((2-methanesulphonyl-ethylamino)-methyl)-thiazol-4-yl)quinazolin-4-yl)-amine ditosylate]	< 5	–
–	–	–	–	–	CS(=O)(=O)CCNCc1ccc(-c2ccc3ncnc(Nc4ccc(OCc5cccc(F)c5)c(Cl)c4)c3c2)o1.Cc1ccc(S(=O)(=O)O)cc1.Cc1ccc(S(=O)(=O)O)cc1 [N-{3-Chloro-4-[(3-fluorobenzyl)oxy]phenyl}-6-[5-({[2-(methanesulphonyl)ethyl]amino}methyl)-2-furyl]-4-quinazolinamine ditosylate]	–	Equilibrium Form ([2]; RH 0 %, Water Volume 0 %, Water Mole Fraction 0.00, 1:1 anhydrate/monohydrate slurry in MeOH/H2O): Anhydrate; Equilibrium Form ([2]; RH 7 %, Water Volume 2 %, Water Mole Fraction 0.04, 1:1 anhydrate/monohydrate slurry in MeOH/H2O): Anhydrate; Equilibrium Form ([2]; RH 15 %, Water Volume 5 %, Water Mole Fraction 0.11, 1:1 anhydrate/monohydrate slurry in MeOH/H2O): Monohydrate; Equilibrium Form ([2]; RH 26 %, Water Volume 10 %, Water Mole Fraction 0.20, 1:1 anhydrate/monohydrate slurry in MeOH/H2O): Monohydrate; Equilibrium Form ([2]; RH 43 %, Water Volume 20 %, Water Mole Fraction 0.36, 1:1 anhydrate/monohydrate slurry in MeOH/H2O): Monohydrate; Equilibrium Form ([2]; RH 66 %, Water Volume 40 %, Water Mole Fraction 0.60, 1:1 anhydrate/monohydrate slurry in MeOH/H2O): Monohydrate; Equilibrium Form ([2]; RH 80 %, Water Volume 60 %, Water Mole Fraction 0.77, 1:1 anhydrate/monohydrate slurry in MeOH/H2O): Monohydrate; Equilibrium Form ([2]; RH 91 %, Water Volume 80 %, Water Mole Fraction 0.90, 1:1 anhydrate/monohydrate slurry in MeOH/H2O): Monohydrate; Equilibrium Form ([2]; RH 95 %, Water Volume 90 %, Water Mole Fraction 0.95, 1:1 anhydrate/monohydrate slurry in MeOH/H2O): Monohydrate; Equilibrium Form ([2]; RH 100 %, Water Volume 100 %, Water Mole Fraction 1.00, 1:1 anhydrate/monohydrate slurry): Monohydrate
–	–	–	–	–	CS(=O)(=O)CCNCc1ccc(-c2ccc3ncnc(Nc4ccc(OCc5cccc(F)c5)c(Cl)c4)c3c2)o1.Cl.Cl [di-HCl salt, N-{3-Chloro-4-[(3-fluorobenzyl)oxy]phenyl}-6-[5-({[2-(methanesulphonyl)ethyl]amino}methyl)-2-furyl]-4-quinazolinamine di-HCl salt]	–	water sorption [4]: sorbs very large amounts of water

Structure (SMILES)	IC50 [1] [µM]	IC50 (breast (BT474)) [µM]	pIC50 [3]	pIC50 (c-erbB-2)	pIC50 (c-erbB-4)	IC50 (head and neck (HN5)) [µM]	further results
CS(=O)(=O)CCNCc1ccc(-c2ccc3ncnc(Nc4ccc(OCc5cccc(F)c5)c(Cl)c4)c3c2)o1 [Example 8, N-{3-Chloro-4-[(3-fluorobenzyl)oxy]phenyl}-6-[5({[2-(methanesulphonyl)ethyl]amino}methyl)-2-furyl]-4-quinazolinamine ditosylate anhydrate]	< 5	< 5	–	–	–	< 5	–
